In patent publication US20260250312A1, “ANTIBACTERIAL COMPOUNDS ELIMINATING DORMANT BACTERIAL CELLS” (UNIVERSITÉ D'AIX-MARSEILLE, priority 2022, published 2026):
Values after ≈ are worked out from the molar mass of the structure shown. Values joined by “and” are separate entries in the source; they are usually repeats but may differ in a detail not shown here. Identical values can stand only once. Like-named read-outs stand apart in the source and are kept apart here.

Key:
CHO-K1 cells = experiment: WST1 cytotoxicity test; format: cell-based, Chinese hamster; details: Cricetulus griseus, CHO-K1, 24 h, WST1, 24 hours at 37° C.; read-out: IC50 CHO
Text: Cytotoxicity: The test WST1 was used to measure the cytotoxic activity of the compounds of the invention. The test WST1 is a colorimetric test allowing to measure the viability and the degree of cell proliferation. It is based on cleavage of the colorless tetrazolium salts WST-1 (4—[3-(4-iodophenyl)-2-(4-nitrophenyl)-2H-5-tetrazolio]-1,3-benzene disulfonate) with mitochondrial dehydrogenases to the yellow-colored formazan derivative, which may be quantified by spectrophotometry at 420-480 nm. The WST1 test was performed on Chinese hamster ovary (CHO) cells. The CHO-K1 cells (ATCC, USA) were kept in culture in McCoy's 5A medium supplemented with 10% fetal calf serum, 2 mM of L-glutamine and a mixture of penicillin-streptomycin (100 U/ml: 10 μg/mL). The culture was incubated at 37° C. under an atmosphere enriched in CO2 (5%), and subcultured every two days. The cells were transferred into 96-well plates (25,000 cells/mL) in whole McCoy's 5A medium, and maintained for 24 hours at 37° C. under a humid atmosphere enriched in CO2 (5%). Increasing concentrations of tested compounds were added to the wells, each compound was tested in replicates and 8 growth controls containing the cells in the medium alone were included in each series of tests. After 24 hours at 37° C. (5% CO2), the culture medium was removed, the cells were rinsed in phosphate buffer (PBS) and 50 μL of PBS containing 10% of reagent WST1 were added to each well. After 20 minutes of incubation at 37° C., the results were read by spectrophotometry at 450 nm. The results are expressed in dose-response relationships, modeled by nonlinear regression analysis using the TableCurve software.
Cytotoxicity: The same WST1 test as described in Example 2 above was used.

[1] = tested on: Escherichia coli (ATCC28922); experiment: Microdilution MIC assay (CLSI-based), E. coli; format: cell-based; details: 20 hours incubation at 35-37° C., MHB; for MIC: read-out: Minimum inhibitory concentration E. coli ATCC28922
Procedure: (§1) The antibacterial activity of compounds was measured using a standard microdilution assay based on the Clinical and Laboratory Standards Institute (CLSI) guidelines. This method was slightly modified. Indeed, assay volumes were increased to 200 μL to improve reproducibility. The chemical compounds to be tested were in the form of salts for biological testing.
(§2) Bacteria tested: Antibacterial activities of the compounds were tested on Staphylococcus aureus (ATCC25923), Enterococcus faecalis (ATCC29212), Escherichia coli ([…]) and Pseudomonas aeruginosa (ATCC27853).
(§3) Preparation of the Preculture: Mueller Hinton Agar plates were inoculated with frozen biological strain in order to obtain separate colonies and the plates were incubated during 24 h at 35-37° C. 3 colonies of similar aspect were picked out, resuspended in 5 mL of fresh Mueller Hinton broth 1× (MHB) and incubated with shaking (160 rpm) at 35-37° C. overnight.
(§4) 0.1 mL of bacteria in exponential phase were suspended in 9.9 mL of MHB (1:100 dilution). 0.1 mL of the 1:100 dilution were dispensed into the wells of microplates containing 0.1 ml of serial compounds dilutions to yield ca. 5×10^5 CFU/mL. In parallel, the stocks solutions of chemical compounds were first diluted in appropriate solvent to a final concentration of 5 mg/mL. 8 μL were dispended into the first wells of the microplates containing 0.1 ml of sterile broth and a 0.5 cascade dilution was performed in MHB from 0.2 mg/mL. One control was made for each strain tested. […] Tests were performed in triplicate.
(§5) Reading of the Results: After incubation, the filter was replaced with a transparent film, and an optical density reading was then taken in an iEMS plate spectrophotometer at 620 nm. Calculation of the minimum inhibitory concentration (MIC) was performed.

[2] = tested on: Pseudomonas aeruginosa (ATCC27853); experiment: Microdilution MIC assay (CLSI-based), P. aeruginosa; format: cell-based; details: 20 hours incubation at 35-37° C., MHB; for MIC: read-out: Minimum inhibitory concentration P. aeruginosa ATCC27853
Procedure: as §1, §2, §3, §4, §5

[3] = tested on: Enterococcus faecalis (ATCC29212); experiment: Microdilution MIC assay (CLSI-based), E. faecalis; format: cell-based; details: 20 hours incubation at 35-37° C., MHB; for MIC: read-out: Minimum inhibitory concentration E. faecalis ATCC29212
Procedure: as §1, §2, §3, §4, §5

[4] = tested on: Staphylococcus aureus (ATCC25923); experiment: Microdilution MIC assay (CLSI-based), S. aureus; format: cell-based; details: 20 hours incubation at 35-37° C., MHB; for MIC: read-out: Minimum inhibitory concentration S. aureus ATCC25923
Procedure: as §1, §2, §3, §4, §5

[5] = Escherichia coli, ATCC28922, 20 h
[6] = Pseudomonas aeruginosa, ATCC27853, 20 h
[7] = Enterococcus faecalis, ATCC29212, 20 h
[8] = Staphylococcus aureus, ATCC25923, 20 h

Compound: COC(=O)[C@H](NC(=O)CC[C@@H](C)[C@H]1CCC2C3C(CC[C@@]21C)[C@@]1(C)CC[C@H](NCCCN)C[C@H]1C[C@H]3O)C(C)C (stereo partly drawn) [Compound S018, methyl ((4R)-4-((3S,5S,7R,10S,13R,17R)-3-((3-aminopropyl)amino)-7-hydroxy-10,13-dimethylhexadecahydro-1H-cyclopenta[a]phenanthren-17-yl)pentanoyl)-D-valinate]
- IC50 (CHO-K1 cells): 10.9 µM and 6.1 µg/mL
- MIC [1, 5]: 200 µM and 128 µg/mL
- MIC [2, 6]: 200 µM and 128 µg/mL
- MIC [3, 7]: 100 µM and 64 µg/mL
- MIC [4, 8]: 50 µM and 32 µg/mL

Compound: COC(=O)[C@H](Cc1ccccc1)NC(=O)CC[C@@H](C)[C@H]1CCC2C3C(CC[C@@]21C)[C@@]1(C)CC[C@H](NCCCN)C[C@H]1C[C@H]3O (stereo partly drawn) [Compound S016, methyl ((4R)-4-((3S,5S,7R,10S,13R,17R)-3-((3-aminopropyl)amino)-7-hydroxy-10,13-dimethylhexadecahydro-1H-cyclopenta[a]phenanthren-17-yl)pentanoyl)-L-phenylalaninate]
- IC50 (CHO-K1 cells): 66 µM and 40.2 µg/mL
- MIC [1, 5]: 25 µM and 16 µg/mL
- MIC [2, 6]: 50 µM and 32 µg/mL
- MIC [3, 7]: 25 µM and 16 µg/mL
- MIC [4, 8]: 12.5 µM and 8 µg/mL

Compound: COC(=O)[C@H](CC(C)C)NC(=O)CC[C@@H](C)[C@H]1CCC2C3C(CC[C@@]21C)[C@@]1(C)CC[C@H](NCCCNCCNCCCN)C[C@H]1C[C@H]3O (stereo partly drawn) [Compound S035, methyl ((4R)-4-((3S,5S,7R,10S,13R,17R)-3-((3-((2-((3-aminopropyl)amino)ethyl)amino)propyl)amino)-7-hydroxy-10,13-dimethylhexadecahydro-1H-cyclopenta[a]phenanthren-17-yl)pentanoyl)-L-leucinate]
- IC50 (CHO-K1 cells): 45.2 µM and 30.6 µg/mL
- MIC [1, 5]: 12.5 µM and 8 µg/mL
- MIC [2, 6]: 12.5 µM and 8 µg/mL
- MIC [3, 7]: 12.5 µM and 8 µg/mL
- MIC [4, 8]: 12.5 µM and 8 µg/mL

Compound: COC(=O)[C@H](Cc1ccc(O)cc1)NC(=O)CC[C@@H](C)[C@H]1CCC2C3C(CC[C@@]21C)[C@@]1(C)CC[C@H](NCCCNCCCN)C[C@H]1C[C@H]3O (stereo partly drawn) [Compound S040, methyl ((4R)-4-((3S,5S,7R,10S,13R,17R)-3-((3-((3-aminopropyl)amino)propyl)amino)-7-hydroxy-10,13-dimethylhexadecahydro-1H-cyclopenta[a]phenanthren-17-yl)pentanoyl)-L-tyrosinate]
- IC50 (CHO-K1 cells): 155 µM and 106 µg/mL
- MIC [1, 5]: 50 µM and 32 µg/mL
- MIC [2, 6]: 50 µM and 32 µg/mL
- MIC [3, 7]: 25 µM and 16 µg/mL
- MIC [4, 8]: 25 µM and 16 µg/mL

Compound: COC(=O)[C@@H](NC(=O)CC[C@@H](C)[C@H]1CCC2C3CC[C@@H]4C[C@@H](NCCCN5CCN(CCCN)CC5)CC[C@]4(C)C3CC[C@@]21C)C(C)C (stereo partly drawn) [Compound S056, methyl ((4R)-4-((3S,5R,10S,13R,17R)-3-((3-(4-(3-aminopropyl)piperazin-1-yl)propyl)amino)-10,13-dimethylhexadecahydro-1H-cyclopenta[a]phenanthren-17-yl)pentanoyl)-L-valinate]
- MIC [1, 5]: 200 µM and 128 µg/mL
- MIC [2, 6]: > 200 µM and > 128 µg/mL
- MIC [3, 7]: 100 µM and 64 µg/mL
- MIC [4, 8]: 200 µM and 128 µg/mL

Compound: COC(=O)[C@H](Cc1ccccc1)NC(=O)CC[C@@H](C)[C@H]1CCC2C3C(CC[C@@]21C)[C@@]1(C)CC[C@H](NCCCCCCCCCCN)C[C@H]1C[C@H]3O (stereo partly drawn) [Compound S032, methyl ((4R)-4-((3S,5S,7R,10S,13R,17R)-3-((10-aminodecyl)amino)-7-hydroxy-10,13-dimethylhexadecahydro-1H-cyclopenta[a]phenanthren-17-yl)pentanoyl)-L-phenylalaninate]
- MIC [1, 5]: 50 µM and 32 µg/mL
- MIC [2, 6]: 200 µM and 128 µg/mL
- MIC [3, 7]: 12.5 µM and 8 µg/mL
- MIC [4, 8]: 50 µM and 32 µg/mL

Compound: COC(=O)CNC(=O)CC[C@@H](C)[C@H]1CCC2C3C(CC[C@@]21C)[C@@]1(C)CC[C@H](NCCCNCCCCNCCCN)C[C@H]1C[C@H]3O (stereo partly drawn) [Compound S027, methyl ((4R)-4-((3S,5S,7R,10S,13R,17R)-3-((3-((4-((3-aminopropyl)amino)butyl)amino)propyl)amino)-7-hydroxy-10,13-dimethylhexadecahydro-1H-cyclopenta[a]phenanthren-17-yl)pentanoyl)glycinate]
- Minimum inhibitory concentration E. coli ATCC28922 [1]: 8 µg/mL (≈ 12.3 µM)
- MIC [1]: 12.5 µM (≈ 8.1 µg/mL)
- Minimum inhibitory concentration P. aeruginosa ATCC27853 [2]: 32 µg/mL (≈ 49.4 µM)
- MIC [2]: 50 µM (≈ 32.4 µg/mL)
- Minimum inhibitory concentration E. faecalis ATCC29212 [3]: 16 µg/mL (≈ 24.7 µM)
- MIC [3]: 25 µM (≈ 16.2 µg/mL)
- Minimum inhibitory concentration S. aureus ATCC25923 [4]: 4 µg/mL (≈ 6.17 µM)
- MIC [4]: 6.25 µM (≈ 4.05 µg/mL)

Compound: COC(=O)[C@H](NC(=O)CC[C@@H](C)[C@H]1CCC2C3C(CC[C@@]21C)[C@@]1(C)CC[C@H](NCCCNCCCN)C[C@H]1C[C@H]3O)C(C)C (stereo partly drawn) [Compound S021, methyl ((4R)-4-((3S,5S,7R,10S,13R,17R)-3-((3-((3-aminopropyl)amino)propyl)amino)-7-hydroxy-10,13-dimethylhexadecahydro-1H-cyclopenta[a]phenanthren-17-yl)pentanoyl)-D-valinate]
- Minimum inhibitory concentration E. coli ATCC28922 [1]: 32 µg/mL (≈ 51.7 µM)
- MIC [1]: 50 µM (≈ 30.9 µg/mL)
- Minimum inhibitory concentration P. aeruginosa ATCC27853 [2]: 32 µg/mL (≈ 51.7 µM)
- MIC [2]: 50 µM (≈ 30.9 µg/mL)
- Minimum inhibitory concentration E. faecalis ATCC29212 [3]: 32 µg/mL (≈ 51.7 µM)
- MIC [3]: 50 µM (≈ 30.9 µg/mL)
- Minimum inhibitory concentration S. aureus ATCC25923 [4]: 8 µg/mL (≈ 12.9 µM)
- MIC [4]: 12.5 µM (≈ 7.74 µg/mL)

Compound: COC(=O)[C@H](Cc1ccccc1)NC(=O)CC[C@@H](C)[C@H]1CCC2C3CC[C@@H]4C[C@@H](NCCCN(CCCN)CCCN)CC[C@]4(C)C3C[C@H](O)[C@@]21C (stereo partly drawn) [Compound S055, methyl ((4R)-4-((3S,5R,10S,12S,13R,17R)-3-((3-(bis(3-aminopropyl)amino)propyl)amino)-12-hydroxy-10,13-dimethylhexadecahydro-1H-cyclopenta[a]phenanthren-17-yl)pentanoyl)-L-phenylalaninate]
- MIC [1, 5]: 25 µM and 16 µg/mL
- MIC [2, 6]: 100 µM and 64 µg/mL
- MIC [3, 7]: 50 µM and 32 µg/mL
- MIC [4, 8]: 50 µM and 32 µg/mL
